Results: ChEMBL document CHEMBL3124792, “Discovery and preclinical characterization of the cyclopropylindolobenzazepine BMS-791325, a potent allosteric inhibitor of the hepatitis C virus NS5B polymerase” (J Med Chem, 2014)
pEC50, pIC50: −log10 of the molar value. Converted amounts (≈) assume the structure as drawn.

Legend:
[1] = Half life in rat liver microsomes; assay type: ADME
[2] = Aqueous solubility of the compound at pH 6.5; settings: buffer
[3] = Aqueous solubility of the compound at pH 2.2; settings: buffer
[4] = Aqueous solubility of the compound at pH 7.8; settings: buffer
PXR (NR1I2) = biological target: T1, PXR (NR1I2) (Homo sapiens, UniProt O75469); assay: Transactivation of human PXR expressed in human HepG2 cells at 5.56 uM by luciferase reporter gene assay relative to control; assay type: cell-based; settings: HepG2 cells that express human PXR, read-out: %max
T1 sequence (O75469 whole entry): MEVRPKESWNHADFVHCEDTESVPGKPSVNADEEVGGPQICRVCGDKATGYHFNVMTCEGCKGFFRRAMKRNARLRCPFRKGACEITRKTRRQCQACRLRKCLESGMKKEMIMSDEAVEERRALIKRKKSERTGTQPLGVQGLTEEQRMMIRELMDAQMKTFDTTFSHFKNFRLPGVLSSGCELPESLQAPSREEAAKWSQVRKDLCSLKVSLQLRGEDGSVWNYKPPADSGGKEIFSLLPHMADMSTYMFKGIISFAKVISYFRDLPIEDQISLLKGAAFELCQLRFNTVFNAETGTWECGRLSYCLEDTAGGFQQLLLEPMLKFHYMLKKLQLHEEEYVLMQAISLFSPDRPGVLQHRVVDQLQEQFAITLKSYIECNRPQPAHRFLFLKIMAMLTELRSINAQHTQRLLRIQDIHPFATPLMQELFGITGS

Cytochrome P450 3A4 = Cytochrome P450 3A4 (Homo sapiens, UniProt P08684); assay: Inhibition of CYP3A4 (unknown origin); assay type: ADME
CYP2C9 = CYP2C9 (Homo sapiens, UniProt P11712); assay: Inhibition of CYP2C9 (unknown origin)
CYP2D6 = CYP2D6 (Homo sapiens, UniProt P10635); assay: Inhibition of CYP2D6 (unknown origin)
CYP2C19 = CYP2C19 (Homo sapiens, UniProt P33261); assay: Inhibition of CYP2C19 (unknown origin)
CYP1A2 = CYP1A2 (Homo sapiens, UniProt P05177); assay: Inhibition of CYP1A2 (unknown origin)
[5] = Protein binding in human serum; assay type: ADME, cell-free; settings: read-out: PB (converted)
[6] = biological target: T2, Voltage-gated inwardly rectifying potassium channel KCNH2 (Homo sapiens, UniProt Q12809); assay: Inhibition of human ERG by patch-clamp assay
[7] = Inhibition of human phosphodiesterase 4 by functional assay
Homo sapiens = species: Homo sapiens; assay: Inhibition of human phosphodiesterase 4 at 10 uM relative to control
[8] = system: unidentified influenza virus; assay: Antiviral activity against Influenza virus; assay type: functional, organism-based
[9] = system: Human immunodeficiency virus; assay: Antiviral activity against Human immunodeficiency virus; assay type: functional, organism-based; settings: Human immunodeficiency virus 1
Coxsackievirus = assay: Antiviral activity against Coxsackievirus; assay type: functional, organism-based
Coronaviridae = assay: Antiviral activity against Coronavirus; assay type: functional, organism-based
Enterovirus = assay: Antiviral activity against Rhinovirus; assay type: functional, organism-based
Enterovirus C = assay: Antiviral activity against Poliovirus; assay type: functional, organism-based
[10] = system: Bovine viral diarrhea virus 1; assay: Antiviral activity against Bovine viral diarrhea virus; assay type: functional, organism-based; settings: Bovine viral diarrhea virus isolates and strains
[11] = Inhibition of Hepatitis C virus genotype 5a NS5B; design: species or system Hepatitis C virus subtype 5a
[12] = Inhibition of Hepatitis C virus genotype 4a NS5B; design: species or system Hepatitis C virus subtype 4a
[13] = Inhibition of Hepatitis C virus genotype 3a NS5B; design: species or system Hepatitis C virus subtype 3a
[14] = Inhibition of Hepatitis C virus genotype 1b NS5B; design: species or system Hepatitis C virus subtype 1b
[15] = Inhibition of Hepatitis C virus genotype 1a NS5B; design: species or system Hepatitis C virus subtype 1a
Hepatitis C virus [16] = assay: Antiviral activity against Hepatitis C virus genotype 2a by cell-based assay; assay type: functional, organism-based, Hepacivirus hominis
[17] = biological target: T2, Voltage-gated inwardly rectifying potassium channel KCNH2; assay: Inhibition of human ERG by fluorescence-based thallium flux assay
[18] = Solubility of the compound in amorphous form in phosphate buffer at pH 6.5; assay type: physicochemical
[19] = Permeability of the compound at pH 7.4 by PAMPA; assay type: physicochemical; settings: read-out: permeability
[20] = Cytotoxicity against human HuH7 cells by Alamar blue assay; assay type: cell-based; settings: Huh-7 cells
[21] = Inhibition of HCV Con1 genotype 1b recombinant wild-type NS5B polymerase-mediated incorporation of radiolabeled nucleotides by scintillation proximity assay; design: species or system Hepatitis C virus (isolate Con1)
Hepatitis C virus [22] = assay: Antiviral activity against Hepatitis C virus Con1 genotype 1b infected in human HuH7 cells after 3 days by FRET assay in presence of 40% human serum; assay type: functional, organism-based, Hepacivirus hominis; settings: isolate Con1, Huh-7, 72 h
Hepatitis C virus [23] = assay: Antiviral activity against Hepatitis C virus H77c genotype 1a infected in human HuH7 cells after 3 days by FRET assay; assay type: functional, organism-based, Hepacivirus hominis; settings: genotype 1a H77, Huh-7, 72 h
Hepatitis C virus [24] = assay: Antiviral activity against Hepatitis C virus genotype 1a by cell-based assay; assay type: functional, organism-based, Hepacivirus hominis; settings: subtype 1a
[25] = AUC (0 to infinity) in rat at 10 mg/kg, po; assay type: ADME, organism-based; design: time infinity, dose 10 mg/kg, route oral; settings: plasma
[26] = Half life in rat at 10 mg/kg, po; settings: in vivo
[27] = Tmax in rat at 10 mg/kg, po; assay type: ADME, organism-based; design: dose 10 mg/kg, route oral; settings: in vivo
[28] = Volume of distribution in rat at 5 mg/kg, iv; settings: in vivo
[29] = Cmax in rat at 10 mg/kg, po; assay type: ADME, organism-based; design: dose 10 mg/kg, route oral; settings: in vivo
[30] = Half life in rat at 5 mg/kg, iv; settings: in vivo
Rattus norvegicus = assay: AUC (0 to infinity) in rat at 5 mg/kg, iv; assay type: ADME, organism-based, Plasma; design: time infinity, dose 5 mg/kg, route intravenous; settings: in vivo
[31] = Cmax in rat at 5 mg/kg, iv; assay type: ADME, organism-based; design: dose 5 mg/kg, route intravenous; settings: in vivo
[32] = Half life in human liver microsomes; assay type: ADME
[33] = Half life in cynomolgus monkey liver microsomes; assay type: ADME, Macaca fascicularis, Microsome
[34] = Half life in dog liver microsomes; assay type: ADME, Canis lupus familiaris
Liver microsome [35] = settings: human, microsomes
Liver microsome [36] = settings: rat, microsomes
in vivo = settings: rat, po, 10 mg/kg
Hepatitis C virus [37] = assay: Antiviral activity against Hepatitis C virus genotype 1b by cell-based assay; assay type: functional, organism-based, Hepacivirus hominis

T2 sequence (Q12809 whole entry): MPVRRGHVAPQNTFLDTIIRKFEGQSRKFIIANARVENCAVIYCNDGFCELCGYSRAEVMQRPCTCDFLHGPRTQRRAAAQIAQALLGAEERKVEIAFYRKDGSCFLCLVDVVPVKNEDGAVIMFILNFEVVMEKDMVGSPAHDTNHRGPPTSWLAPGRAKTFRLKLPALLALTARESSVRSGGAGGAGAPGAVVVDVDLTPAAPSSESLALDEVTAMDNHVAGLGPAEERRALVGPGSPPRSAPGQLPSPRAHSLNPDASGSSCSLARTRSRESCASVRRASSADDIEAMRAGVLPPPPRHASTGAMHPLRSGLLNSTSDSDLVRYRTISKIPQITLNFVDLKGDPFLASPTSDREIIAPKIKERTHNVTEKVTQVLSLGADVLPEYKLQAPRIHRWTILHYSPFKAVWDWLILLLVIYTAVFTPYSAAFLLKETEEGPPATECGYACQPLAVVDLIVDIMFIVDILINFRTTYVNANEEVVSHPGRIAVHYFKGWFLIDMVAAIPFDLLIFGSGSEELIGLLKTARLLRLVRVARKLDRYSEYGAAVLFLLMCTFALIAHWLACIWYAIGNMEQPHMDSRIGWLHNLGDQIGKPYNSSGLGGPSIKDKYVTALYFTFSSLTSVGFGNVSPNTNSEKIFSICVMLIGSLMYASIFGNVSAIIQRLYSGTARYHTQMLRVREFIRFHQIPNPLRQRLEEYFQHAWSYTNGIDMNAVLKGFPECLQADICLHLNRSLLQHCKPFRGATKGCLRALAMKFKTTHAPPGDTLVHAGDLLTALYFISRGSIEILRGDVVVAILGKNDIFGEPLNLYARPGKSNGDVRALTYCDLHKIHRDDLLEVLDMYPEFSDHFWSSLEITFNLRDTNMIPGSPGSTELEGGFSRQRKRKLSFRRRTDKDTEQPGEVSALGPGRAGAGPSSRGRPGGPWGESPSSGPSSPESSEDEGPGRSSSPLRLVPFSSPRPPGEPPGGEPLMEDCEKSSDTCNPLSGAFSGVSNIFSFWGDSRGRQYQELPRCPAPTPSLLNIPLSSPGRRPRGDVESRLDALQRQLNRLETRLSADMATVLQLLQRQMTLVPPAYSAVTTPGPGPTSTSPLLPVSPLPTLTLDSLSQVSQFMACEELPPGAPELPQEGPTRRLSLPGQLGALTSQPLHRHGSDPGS
CYP2C9, sequence (P11712 whole entry): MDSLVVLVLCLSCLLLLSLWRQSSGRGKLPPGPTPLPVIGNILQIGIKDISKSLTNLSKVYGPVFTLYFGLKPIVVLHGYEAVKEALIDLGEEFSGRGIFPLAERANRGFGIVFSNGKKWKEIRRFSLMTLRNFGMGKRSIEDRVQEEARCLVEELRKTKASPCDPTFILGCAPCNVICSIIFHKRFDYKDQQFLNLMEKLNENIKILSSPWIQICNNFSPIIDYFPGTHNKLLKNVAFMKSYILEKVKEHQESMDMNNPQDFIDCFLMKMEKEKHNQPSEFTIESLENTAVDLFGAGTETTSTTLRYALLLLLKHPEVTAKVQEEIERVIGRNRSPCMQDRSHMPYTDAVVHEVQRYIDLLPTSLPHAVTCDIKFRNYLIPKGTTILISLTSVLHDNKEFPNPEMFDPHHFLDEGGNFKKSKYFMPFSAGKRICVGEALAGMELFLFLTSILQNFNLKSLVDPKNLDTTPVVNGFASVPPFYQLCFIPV
CYP1A2, sequence (P05177 whole entry): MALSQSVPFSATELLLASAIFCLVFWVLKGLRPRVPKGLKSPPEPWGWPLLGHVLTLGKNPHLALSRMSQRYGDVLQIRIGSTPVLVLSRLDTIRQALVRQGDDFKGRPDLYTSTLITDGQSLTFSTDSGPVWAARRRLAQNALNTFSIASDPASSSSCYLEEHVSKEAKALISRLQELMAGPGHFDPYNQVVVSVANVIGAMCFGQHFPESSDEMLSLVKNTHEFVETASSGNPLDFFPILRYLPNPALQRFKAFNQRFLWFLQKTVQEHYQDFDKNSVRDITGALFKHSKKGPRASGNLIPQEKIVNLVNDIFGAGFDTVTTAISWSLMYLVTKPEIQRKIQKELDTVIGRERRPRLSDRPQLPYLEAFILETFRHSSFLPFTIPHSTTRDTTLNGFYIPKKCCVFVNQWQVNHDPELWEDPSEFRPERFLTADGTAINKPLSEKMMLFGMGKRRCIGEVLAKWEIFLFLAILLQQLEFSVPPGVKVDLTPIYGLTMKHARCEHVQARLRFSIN
Cytochrome P450 3A4, sequence (P08684 whole entry): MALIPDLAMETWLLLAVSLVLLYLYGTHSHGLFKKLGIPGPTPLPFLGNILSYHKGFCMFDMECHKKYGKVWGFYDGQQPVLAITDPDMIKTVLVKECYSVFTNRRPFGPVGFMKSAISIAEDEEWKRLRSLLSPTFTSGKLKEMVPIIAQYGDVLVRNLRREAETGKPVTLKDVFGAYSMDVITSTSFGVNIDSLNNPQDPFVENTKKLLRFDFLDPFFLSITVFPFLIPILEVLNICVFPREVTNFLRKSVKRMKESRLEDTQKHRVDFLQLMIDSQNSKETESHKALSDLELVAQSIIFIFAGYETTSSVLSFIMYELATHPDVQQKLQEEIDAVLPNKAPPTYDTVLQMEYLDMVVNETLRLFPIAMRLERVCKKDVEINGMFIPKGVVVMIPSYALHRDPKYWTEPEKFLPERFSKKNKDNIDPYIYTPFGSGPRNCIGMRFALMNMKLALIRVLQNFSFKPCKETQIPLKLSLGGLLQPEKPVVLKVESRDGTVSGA
CYP2D6, sequence (P10635 whole entry): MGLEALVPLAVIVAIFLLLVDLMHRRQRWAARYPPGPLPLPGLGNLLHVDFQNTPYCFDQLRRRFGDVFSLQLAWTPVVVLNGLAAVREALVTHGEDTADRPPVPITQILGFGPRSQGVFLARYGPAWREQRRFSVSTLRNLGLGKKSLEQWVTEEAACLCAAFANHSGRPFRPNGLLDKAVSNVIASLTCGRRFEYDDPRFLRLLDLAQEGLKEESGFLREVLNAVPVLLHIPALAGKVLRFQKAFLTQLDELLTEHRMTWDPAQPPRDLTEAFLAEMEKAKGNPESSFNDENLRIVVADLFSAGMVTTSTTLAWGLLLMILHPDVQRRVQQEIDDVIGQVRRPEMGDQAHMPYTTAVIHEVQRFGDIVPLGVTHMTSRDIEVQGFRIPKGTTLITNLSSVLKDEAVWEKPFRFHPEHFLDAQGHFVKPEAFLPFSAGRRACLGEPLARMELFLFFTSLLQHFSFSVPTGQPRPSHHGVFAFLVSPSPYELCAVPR
CYP2C19, sequence (P33261 whole entry): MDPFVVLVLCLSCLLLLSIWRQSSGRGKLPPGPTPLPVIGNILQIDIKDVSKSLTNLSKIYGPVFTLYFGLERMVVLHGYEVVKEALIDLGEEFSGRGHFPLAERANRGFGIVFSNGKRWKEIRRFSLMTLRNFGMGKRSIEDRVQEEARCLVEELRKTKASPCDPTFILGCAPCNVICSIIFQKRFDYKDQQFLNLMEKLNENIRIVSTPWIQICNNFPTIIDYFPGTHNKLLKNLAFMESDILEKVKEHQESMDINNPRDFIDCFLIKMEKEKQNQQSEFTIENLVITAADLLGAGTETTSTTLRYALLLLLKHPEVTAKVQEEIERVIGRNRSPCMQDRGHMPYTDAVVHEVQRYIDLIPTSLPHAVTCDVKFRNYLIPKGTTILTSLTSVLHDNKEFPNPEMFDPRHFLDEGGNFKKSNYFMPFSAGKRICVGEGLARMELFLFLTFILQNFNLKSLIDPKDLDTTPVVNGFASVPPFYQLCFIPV

Structure (SMILES): COc1ccc2c(c1)[C@@H]1C[C@]1(C(=O)N1[C@@H]3CC[C@H]1CN(C)C3)Cn1c-2c(C2CCCCC2)c2ccc(C(=O)NS(=O)(=O)N(C)C)cc21 [BECLABUVIR]
- half-life [1]: > 3.33 h
- solubility [2]: 20 µg/mL (≈ 30.3 µM)
- solubility [3]: > 1600 µg/mL
- solubility [4]: > 1600 µg/mL
- activity at 5.56 µM (PXR (NR1I2)): 8.1%
- pIC50 (Cytochrome P450 3A4): < 4.40
- pIC50 (CYP2C9): < 4.40
- pIC50 (CYP2D6): < 4.40
- pIC50 (CYP2C19): < 4.40
- pIC50 (CYP1A2): < 4.40
- fraction unbound [5]: 0.02
- pIC50 [6]: 4.91
- pIC50 [7]: 5.00
- inhibition (Homo sapiens): 57%
- pEC50 [8]: < 4.85
- pEC50 [9]: < 4.85
- pEC50 (Coxsackievirus): < 4.85
- pEC50 (Coronaviridae): < 4.85
- pEC50 (Enterovirus): < 4.85
- pEC50 (Enterovirus C): < 4.85
- pEC50 [10]: < 4.85
- pIC50 [11]: 8.30
- pIC50 [12]: 7.70
- pIC50 [13]: 8.70
- pIC50 [14]: 8.40
- pIC50 [15]: 8.52
- pEC50 (Hepatitis C virus [16]): 7.06
- pIC50 [17]: 4.61
- solubility [18]: 29 µg/mL (≈ 43.9 µM)
- Papp [19]: 64 ×10⁻⁶ cm/s
- CC50 [20]: > 10000 nM
- pIC50 [21]: 7.70
- pEC50 (Hepatitis C virus [22]): 7.55
- pEC50 (Hepatitis C virus [23]): 8.52
- pEC50 (Hepatitis C virus [24]): 8.52
- AUC(0-inf) [25]: 39.3 µM·h
- half-life [26]: 8.3 h
- Tmax [27]: 5.3 h
- Vd [28]: 2.7 L/kg
- Cmax [29]: 3.26 µM
- half-life [30]: 11.5 h
- AUC (Rattus norvegicus): 30 µM·h
- Cmax [31]: 12.1 µM
- half-life [32]: 0.883 h
- half-life [33]: 0.383 h
- half-life [34]: > 3.33 h
- Stability (Liver microsome [35]): 90%
- Stability (Liver microsome [36]): 99%
- bioavailability (in vivo): 66%

Structure (SMILES): Cn1c(C2(NC(=O)c3ccc4c(C5CCCC5)c(-c5ncc(Br)cn5)n(C)c4c3)CCC2)nc2ccc(/C=C/C(=O)O)cc21 [DELEOBUVIR]
- pEC50 (Hepatitis C virus [24]): 7.37
- pEC50 (Hepatitis C virus [37]): 7.77
